Experimental data published in patent US12492200B2, “NLRP3 modulators” (INNATE TUMOR IMMUNITY, INC., priority 2020, dated 2025).

Target: T1, NLRP3 (Homo sapiens, UniProt Q96P20)
T1 construct: host or cells: PMA-differentiated THP-1 cells
Experiment: Measurement of IL-1β production (NLRP3 hIL1β EC50), PMA-differentiated THP-1 cells
Format: cell-based
Details: human IL-1β production; assayed using one or more of the described procedures
Procedure: THP-1 cells were purchased from the American Type Culture Collection and sub-cultured according to instructions from the supplier. Prior to experiments, cells were cultured in RPMI 1640 containing 10% heat inactivated FBS, penicillin (100 units/ml) and streptomycin (100 μg/ml), and maintained in log phase prior to experimental setup. Prior to the experiment THIP-1 were treated with PMA (Phorbol 12-myristate 13-acetate) (10 μg/ml) for 24 hours. The day of the experiment the media was removed and attaching cells were treated with trypsin for 2 minutes, cells were then collected, washed with PBS (phosphate buffer saline), spin down, resuspended in 2% heat inactivated FBS with RPMI at a concentration of 1×10^6 cells/ml, and 100 μl was plated in a 96 well plate. Compounds were dissolved in dimethyl sulfoxide (DMSO) and added to the culture medium to achieve desired concentration (e.g. 100, 30, 10, 3, 1, 0.3 or 0.1 μM). Cells were incubated with compounds for 4 hours. Cell free supernatant was collected and the production of IL-1β was evaluated by ELISA. A vehicle only control was run concurrently with each experiment. Final DMSO concentration was 1%.
THP-1 cells were purchased from the American Type Culture Collection and sub-cultured according to instructions from the supplier. Prior to experiments, cells were cultured in RPMI 1640 containing 10% heat inactivated FBS, penicillin (100 units/ml), streptomycin (100 μg/ml), HEPES (10 mM) and sodium pyruvate (1 mM) and maintained in log phase prior to experimental setup. Prior to the experiment, THP-1 cells were treated with PMA (Phorbol 12-myristate 13-acetate) (20 μg/ml) overnight. The day of the experiment, the media was removed and attached cells were treated with trypsin for 2 minutes, cells were then collected, washed with PBS (phosphate buffer saline), pelleted by centrifugation and resuspended in 2% heat inactivated FBS with RPMI at a concentration of 50,000 cells/well in a 384 well plate. Cell free supernatant was collected and the production of IL-1β was evaluated by ELISA. Compounds were dissolved in dimethyl sulfoxide (DMSO) and added to the culture medium to achieve desired concentration (e.g. 100, 30, 10, 3, 1, 0.3 or 0.1 μM). Cells were incubated with compounds for 2 hours. A vehicle only control was run concurrently with each experiment. Final DMSO concentration was 1%.
Serial dilutions of compounds in DMSO were added to low volume 384 well plates at 100 nl/well using an ECHO 550 acoustic dispenser (Labcyte) to achieve final starting concentration of 10 μM in assay.
THP-1 cells in RPMI (Gibco, 11875) media with 10% FBS at a density of 1×10^6 cell/ml in a T175 flask were treated with a final concentration of phorbol 12-myristate 13-acetate (PMA) (Sigma,P1585) of 50 ng/ml overnight at 37° C. at 5% CO2 for differentiation. Cells were harvested the next day after rinsing well with dPBS using 0.5% trypsin. A cell solution was prepared of 1×10^6 cells/ml for 50,000 cells in 50 μl/well in RPMI media with 2% FBS. Cells were plated using a multichannel pipette onto the compound dilutions in Greiner, 384 well, black clear bottom tissue culture treated plates (781090). The plates were incubated in 37° C. incubator at 5% CO2 for 2 hours.
After the 2 hour incubation, the cell plates were spun in the centrifuge for 5 minutes at 1200 rpm. Using the Felix (CyBio), 8 μl of the supernatant was transferred to 384 well, low volume, white proxy plates. (Perkin Elmer, 6008230). A human IL1beta hTRF kit was used to analyze the supernatant (CISBIO, 62HIL1BPEG). The kit instructions were followed for preparing the IL1Beta standard curve and then the antibodies from the kit were diluted 1:40 rather than 1:20 as kit instructed. Once combined, the antibodies were added across the plates, 5 μl/well. The plates were sealed and incubated at 4° C. overnight. The plates were then read on the Perkin Elmer EnVision at 665/615 nm using the hTRF laser.

T1 sequence (Q96P20 whole entry): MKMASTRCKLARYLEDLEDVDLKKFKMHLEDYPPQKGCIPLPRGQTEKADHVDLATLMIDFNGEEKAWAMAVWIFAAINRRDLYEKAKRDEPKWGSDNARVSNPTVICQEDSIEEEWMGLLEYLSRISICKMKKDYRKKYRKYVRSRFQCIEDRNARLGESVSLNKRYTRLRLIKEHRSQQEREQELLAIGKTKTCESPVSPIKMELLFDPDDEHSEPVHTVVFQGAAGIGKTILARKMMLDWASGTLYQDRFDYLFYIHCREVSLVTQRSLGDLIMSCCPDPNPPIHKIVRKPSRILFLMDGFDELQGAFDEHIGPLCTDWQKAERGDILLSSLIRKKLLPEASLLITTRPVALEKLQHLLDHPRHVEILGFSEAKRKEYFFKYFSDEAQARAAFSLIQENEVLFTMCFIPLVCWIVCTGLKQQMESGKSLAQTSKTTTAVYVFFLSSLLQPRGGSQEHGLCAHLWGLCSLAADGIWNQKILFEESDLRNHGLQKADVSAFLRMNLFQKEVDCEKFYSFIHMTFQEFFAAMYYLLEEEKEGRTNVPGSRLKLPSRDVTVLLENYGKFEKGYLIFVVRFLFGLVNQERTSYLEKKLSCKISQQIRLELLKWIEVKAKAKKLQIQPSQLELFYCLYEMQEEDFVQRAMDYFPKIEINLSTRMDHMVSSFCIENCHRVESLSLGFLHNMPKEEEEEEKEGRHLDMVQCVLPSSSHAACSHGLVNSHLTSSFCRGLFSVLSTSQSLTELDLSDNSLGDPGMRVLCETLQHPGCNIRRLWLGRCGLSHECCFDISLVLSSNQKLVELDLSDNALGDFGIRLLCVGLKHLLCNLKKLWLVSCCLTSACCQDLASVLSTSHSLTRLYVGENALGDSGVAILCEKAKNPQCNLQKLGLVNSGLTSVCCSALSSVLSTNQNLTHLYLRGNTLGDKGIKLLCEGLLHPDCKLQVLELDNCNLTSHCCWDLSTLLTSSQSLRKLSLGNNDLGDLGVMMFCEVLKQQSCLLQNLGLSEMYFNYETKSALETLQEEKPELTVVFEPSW

CC(C)(C)OC(=O)N1CC[C@@H](c2nc3c(N)nc4cc(-c5cc[nH]n5)ccc4c3[nH]2)C1 [Example 10, tert-Butyl (R)-3-(4-amino-7-(1H-pyrazol-3-yl)-1H-imidazo[4,5-c]quinolin-2-yl)pyrrolidine-1-carboxylate] was tested. Which EC50 did it give?
The EC50 was 0.75 µM.

With CC(C)(C)OC(=O)N1CCC[C@@H]1Cc1nc2c(N)nc3cc(-c4cc[nH]n4)ccc3c2[nH]1 [Example 13, tert-Butyl (R)-2-((4-amino-7-(1H-pyrazol-3-yl)-1H-imidazo[4,5-c]quinolin-2-yl)methyl)pyrolidine-1-carboxylate] as the compound, how does the EC50 read?
The EC50 was 1.52 µM.

How did the EC50 turn out when Nc1nc2cc(-c3cc[nH]n3)ccc2c2[nH]c(C[C@H]3CCCN3C(=O)c3ccccn3)nc12 [Example 85] was run?
The EC50 was 5.9 µM.

For Nc1nc2cc(-c3cc[nH]n3)ccc2c2[nH]c([C@H]3CCCN(C(=O)C4CC4)C3)nc12 [Example 29], which EC50 is on record?
Its EC50 is 2.4 µM.

Which EC50 does the source give for Nc1nc2cc(-c3cc[nH]n3)ccc2c2[nH]c(C[C@@H]3CCCN3)nc12 [Example 17, (S)-7-(1H-pyrazol-3-yl)-2-(pyrrolidin-2-ylmethyl)-1H-imidazo[4,5-c]quinolin-4-amine] here?
The EC50 was 1.2 µM.

For N#CC1(C(=O)N2CCC[C@H]2Cc2nc3c(N)nc4cc(-c5cc[nH]n5)ccc4c3[nH]2)CCC1 [Example 94], which EC50 is on record?
Its EC50 is 6.2 µM.

CCn1c([C@H]2CCCN(C(=O)CC(C)C)C2)nc2c(N)nc3cc(-c4cc[nH]n4)ccc3c21 [Example 43] was tested. Which EC50 did it give?
The EC50 was 0.21 µM.

Nc1nc2cc(-c3cc[nH]n3)ccc2c2[nH]c([C@H]3CCCN(C(=O)C4CC4(F)F)C3)nc12 (stereo partly drawn) [Example 33] was tested. Which EC50 did it give?
Its EC50 is 1 µM.

CCC(=O)N1CCC[C@H](c2nc3c(N)nc4cc(-c5cc[nH]n5)ccc4c3n2CC)C1 [Example 4, (S)-1-(3-(4-Amino-1-ethyl-7-(1H-pyrazol-3-yl)-1H-imidazo[4,5-c]quinolin-2-yl)piperidin-1-yl)propan-1-one] was tested. Which EC50 did it give?
The EC50 was 0.26 µM.

With COCCC(=O)N1CCC[C@H]1Cc1nc2c(N)nc3cc(-c4cc[nH]n4)ccc3c2[nH]1 [Example 90] as the compound, how does the EC50 read?
Its EC50 is 6 µM.

With CCn1c([C@H]2CCCN(C(C)=O)C2)nc2c(N)nc3cc(-c4cc[nH]n4)ccc3c21 [Example 41] as the compound, how does the EC50 read?
The EC50 was 0.77 µM.

With CC(C)C(=O)N1CCC[C@H](c2nc3c(N)nc4cc(-c5cc[nH]n5)ccc4c3[nH]2)C1 [Example 26] as the compound, how does the EC50 read?
Its EC50 is 1.2 µM.

For CCC(=O)N1CCC[C@@H]1Cc1nc2c(N)nc3cc(-c4cc[nH]n4)ccc3c2[nH]1 [Example 15, (R)-1-(2-((4-Amino-7-(1H-pyrazol-3-yl)-1H-imidazo[4,5-c]quinolin-2-yl)methyl)pyrrolidin-1-yl)propane-1-one], which EC50 is on record?
The EC50 was 1.8 µM.

Which EC50 does the source give for COCCC(=O)N1CCC[C@H](c2nc3c(N)nc4cc(-c5cc[nH]n5)ccc4c3n2C(C)C)C1 [Example 59] here?
The EC50 was 0.97 µM.

How did the EC50 turn out when C#CCC(=O)N1CCC[C@@H](c2nc3c(N)nc4cc(-c5cc[nH]n5)ccc4c3[nH]2)C1 [Example 65] was run?
The EC50 was 0.35 µM.

C#CCC(=O)N1CCC[C@H](c2nc3c(N)nc4cc(-c5cc[nH]n5)ccc4c3n2CC)C1 [Example 49] was tested. Which EC50 did it give?
The EC50 was 0.62 µM.

With Nc1nc2cc(-c3cc[nH]n3)ccc2c2[nH]c([C@H]3CCCNC3)nc12 [Example 2, (S)-2-(Piperidin-3-yl)-7-(1H-pyrazol-3-yl)-1H-imidazo[4,5-c]quinolin-4-amine] as the compound, how does the EC50 read?
The EC50 was 0.51 µM.

Nc1nc2cc(-c3cc[nH]n3)ccc2c2[nH]c([C@@H]3CCCN(C(=O)C4CC4(F)F)C3)nc12 (stereo partly drawn) [Example 63] was tested. Which EC50 did it give?
Its EC50 is 6.6 µM.

For CC(C)(C)OC(=O)N1CCC(c2nc3c(N)nc4cc(-c5cc[nH]n5)ccc4c3[nH]2)CC1 [Example 12, tert-Butyl 4-(4-amino-7-(1H-pyrazol-3-yl)-1H-imidazo[4,5-c]quinolin-2-yl)piperidine-1-carboxylate], which EC50 is on record?
The EC50 was 4.9 µM.

For “tert-Butyl 3-((4-amino-7-(1H-pyrazol-1-yl)-1H-imidazo[4,5-c]quinolin-2-yl)methyl)pyrrolidine-1-carboxylate [Example 23]”, which EC50 is on record?
Its EC50 is 2.2 µM.

Nc1nc2cc(-c3cc[nH]n3)ccc2c2[nH]c(C[C@@H]3CCCN3C(=O)C3(C(F)(F)F)CC3)nc12 [Example 93] was tested. Which EC50 did it give?
The EC50 was 3.2 µM.

N#CC1(C(=O)N2CC[C@H](c3nc4c(N)nc5cc(-c6cc[nH]n6)ccc5c4[nH]3)C2)CC1 [Example 75] was tested. Which EC50 did it give?
Its EC50 is 5 µM.

CC(C)C(=O)N1CCC[C@@H](c2nc3c(N)nc4cc(-c5cc[nH]n5)ccc4c3[nH]2)C1 [Example 60] was tested. Which EC50 did it give?
Its EC50 is 4.6 µM.

How did the EC50 turn out when CC(=O)N1CC[C@H](c2nc3c(N)nc4cc(-c5cc[nH]n5)ccc4c3[nH]2)C1 [Example 71] was run?
The EC50 was 4.9 µM.

How did the EC50 turn out when CC(C)n1c([C@H]2CCCN(C(=O)C3CC(F)(F)C3)C2)nc2c(N)nc3cc(-c4cc[nH]n4)ccc3c21 [Example 58] was run?
The EC50 was 0.33 µM.

For CC(C)C(=O)N1CCC[C@H]1Cc1nc2c(N)nc3cc(-c4cc[nH]n4)ccc3c2[nH]1 [Example 86], which EC50 is on record?
The EC50 was 6.4 µM.

CC(=O)N1CCC[C@H](c2nc3c(N)nc4cc(-c5cc[nH]n5)ccc4c3[nH]2)C1 [Example 24] was tested. Which EC50 did it give?
Its EC50 is 0.77 µM.

With CC(C)(C)C(=O)N1CCC[C@H]1Cc1nc2c(N)nc3cc(-c4cc[nH]n4)ccc3c2[nH]1 [Example 88] as the compound, how does the EC50 read?
The EC50 was 1.9 µM.

With Nc1nc2cc(-c3cc[nH]n3)ccc2c2[nH]c(C[C@@H]3CCCN3C(=O)C3CCC3)nc12 [Example 89] as the compound, how does the EC50 read?
Its EC50 is 2.8 µM.

Which EC50 does the source give for Nc1nc2cc(-c3cc[nH]n3)ccc2c2[nH]c(C[C@H]3CCCN3)nc12 [Example 14, (R)-7-(1H-pyrazol-3-yl)-2-(pyrrolidin-2-ylmethyl)-1H-imidazo[4,5-c]quinolin-4-amine] here?
Its EC50 is 0.11 µM.

With N#CC1(C(=O)N2CCC[C@H]2Cc2nc3c(N)nc4cc(-c5cc[nH]n5)ccc4c3[nH]2)CC1 [Example 92] as the compound, how does the EC50 read?
Its EC50 is 9.4 µM.

Which EC50 does the source give for CCCC(=O)N1CCC[C@H](c2nc3c(N)nc4cc(-c5cc[nH]n5)ccc4c3n2C(C)C)C1 [Example 52] here?
The EC50 was 0.38 µM.

How did the EC50 turn out when N#CC1(C(=O)N2CCC[C@H]2Cc2nc3c(N)nc4cc(-c5cc[nH]n5)ccc4c3[nH]2)CCCC1 [Example 95] was run?
The EC50 was 6.5 µM.

For CC(C)(C)OC(=O)N1CCC[C@H]1Cc1nc2c(N)nc3cc(-c4cc[nH]n4)ccc3c2[nH]1 [Example 16, tert-Butyl (S)-2-((4-amino-7-(1H-pyrazol-3-yl)-1H-imidazo[4,5-c]quinolin-2-yl)methyl)pyyrolidine-1-carboxylate], which EC50 is on record?
The EC50 was 3.7 µM.

For CCCC(=O)N1CCC[C@@H]1Cc1nc2c(N)nc3cc(-c4cc[nH]n4)ccc3c2[nH]1 [Example 78], which EC50 is on record?
The EC50 was 5.8 µM.

With CC(C)n1c([C@H]2CCCN(C(=O)C3(C#N)CC3)C2)nc2c(N)nc3cc(-c4cc[nH]n4)ccc3c21 [Example 55] as the compound, how does the EC50 read?
Its EC50 is 0.23 µM.

With CC(C)CC(=O)N1CCC[C@@H](c2nc3c(N)nc4cc(-c5cc[nH]n5)ccc4c3[nH]2)C1 [Example 66] as the compound, how does the EC50 read?
The EC50 was 3.5 µM.

Which EC50 does the source give for CCC(=O)N1CCC[C@H](c2nc3c(N)nc4cc(-c5cc[nH]n5)ccc4c3n2C(C)C)C1 [Example 5, (S)-1-(3-(4-Amino-1-isopropyl-7-(1H-pyrazol-3-yl)-1H-imidazo[4,5-c]quinolin-2-yl)piperidin-1-yl)propan-1-one] here?
The EC50 was 0.33 µM.

For CC(=O)N1CCC(Cc2nc3c(N)nc4cc(-c5cc[nH]n5)ccc4c3[nH]2)C1 (stereo not drawn) [Example 20, 1-(3-((4-Amino-7-(1H-pyrazol-3-yl)-1H-imidazo[4,5-c]quinolin-2-yl)methyl)pyrrolidin-1-yl)ethan-1-one], which EC50 is on record?
Its EC50 is 4.9 µM.

For Nc1nc2cc(-c3cc[nH]n3)ccc2c2[nH]c([C@@H]3CCN(C(=O)c4ccccc4)C3)nc12 [Example 77], which EC50 is on record?
The EC50 was 4.1 µM.

“(S)-1-(2-((4-amino-7-(1H-pyrazol-3-yl)-1H-imidazo[4,5-c]quinolin-2-yl)methyl)pyrrolidin-1-yl)propane-1-one [Example 18]” was tested. Which EC50 did it give?
The EC50 was 4.9 µM.

Which EC50 does the source give for N#CC1(C(=O)N2CCC[C@@H]2Cc2nc3c(N)nc4cc(-c5cc[nH]n5)ccc4c3[nH]2)CCCC1 [Example 83] here?
The EC50 was 6.6 µM.
